These are literature values, as cited in paper PMC9851200, “Multiparameter phenotypic screening for endogenous TFEB and TFE3 translocation identifies novel chemical series modulating lysosome function” (Autophagy, 2022).

Holding throughout (design): method as in original PKIS2 published data
Data set [1] concerns the target kinases (KINOMEscan panel) (Homo sapiens, UniProt Q9NQU5). As to conditions: PAK6; Published KINOMEscan; ref original PKIS2 published data; cited from earlier work.
Data set [2] has as its target kinases (KINOMEscan panel) (Homo sapiens, UniProt Q86UE8). The following applies: kinase TLK2; Published KINOMEscan; ref original PKIS2 published data; cited from earlier work.
Data set [3] deals with kinases (KINOMEscan panel) (Homo sapiens, UniProt Q8IVW4). As to conditions: kinase CDKL3; Published KINOMEscan; ref original PKIS2 published data; cited from earlier work.
Chain of kinases (KINOMEscan panel) (Homo sapiens, UniProt Q8IVW4) (Q8IVW4 whole entry): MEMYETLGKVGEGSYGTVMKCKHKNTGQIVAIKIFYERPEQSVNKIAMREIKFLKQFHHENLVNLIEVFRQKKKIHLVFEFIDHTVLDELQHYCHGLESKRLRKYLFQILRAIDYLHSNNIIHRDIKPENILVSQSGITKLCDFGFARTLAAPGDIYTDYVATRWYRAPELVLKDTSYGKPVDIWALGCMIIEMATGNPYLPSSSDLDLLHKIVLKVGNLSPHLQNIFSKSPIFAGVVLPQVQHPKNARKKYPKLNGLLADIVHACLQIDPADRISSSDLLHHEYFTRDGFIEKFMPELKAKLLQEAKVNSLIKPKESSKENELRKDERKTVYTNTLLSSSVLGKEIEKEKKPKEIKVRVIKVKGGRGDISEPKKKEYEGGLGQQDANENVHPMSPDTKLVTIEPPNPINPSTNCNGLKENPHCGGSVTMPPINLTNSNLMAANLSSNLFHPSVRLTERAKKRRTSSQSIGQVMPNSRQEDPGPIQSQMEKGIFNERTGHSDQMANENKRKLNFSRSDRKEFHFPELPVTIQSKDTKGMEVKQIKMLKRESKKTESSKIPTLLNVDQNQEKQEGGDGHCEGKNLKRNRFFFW
For data set [4], the target named is kinases (KINOMEscan panel) (Homo sapiens, UniProt Q99755). The following applies: Published KINOMEscan; ref original PKIS2 published data; cited from earlier work.
The target in data set [5] is kinases (KINOMEscan panel) (Homo sapiens, UniProt O60674). As to conditions: JAK2(JH1domain-catalytic); Published KINOMEscan; ref original PKIS2 published data; cited from earlier work.
Chain of kinases (KINOMEscan panel) (Homo sapiens, UniProt O60674) (O60674 whole entry): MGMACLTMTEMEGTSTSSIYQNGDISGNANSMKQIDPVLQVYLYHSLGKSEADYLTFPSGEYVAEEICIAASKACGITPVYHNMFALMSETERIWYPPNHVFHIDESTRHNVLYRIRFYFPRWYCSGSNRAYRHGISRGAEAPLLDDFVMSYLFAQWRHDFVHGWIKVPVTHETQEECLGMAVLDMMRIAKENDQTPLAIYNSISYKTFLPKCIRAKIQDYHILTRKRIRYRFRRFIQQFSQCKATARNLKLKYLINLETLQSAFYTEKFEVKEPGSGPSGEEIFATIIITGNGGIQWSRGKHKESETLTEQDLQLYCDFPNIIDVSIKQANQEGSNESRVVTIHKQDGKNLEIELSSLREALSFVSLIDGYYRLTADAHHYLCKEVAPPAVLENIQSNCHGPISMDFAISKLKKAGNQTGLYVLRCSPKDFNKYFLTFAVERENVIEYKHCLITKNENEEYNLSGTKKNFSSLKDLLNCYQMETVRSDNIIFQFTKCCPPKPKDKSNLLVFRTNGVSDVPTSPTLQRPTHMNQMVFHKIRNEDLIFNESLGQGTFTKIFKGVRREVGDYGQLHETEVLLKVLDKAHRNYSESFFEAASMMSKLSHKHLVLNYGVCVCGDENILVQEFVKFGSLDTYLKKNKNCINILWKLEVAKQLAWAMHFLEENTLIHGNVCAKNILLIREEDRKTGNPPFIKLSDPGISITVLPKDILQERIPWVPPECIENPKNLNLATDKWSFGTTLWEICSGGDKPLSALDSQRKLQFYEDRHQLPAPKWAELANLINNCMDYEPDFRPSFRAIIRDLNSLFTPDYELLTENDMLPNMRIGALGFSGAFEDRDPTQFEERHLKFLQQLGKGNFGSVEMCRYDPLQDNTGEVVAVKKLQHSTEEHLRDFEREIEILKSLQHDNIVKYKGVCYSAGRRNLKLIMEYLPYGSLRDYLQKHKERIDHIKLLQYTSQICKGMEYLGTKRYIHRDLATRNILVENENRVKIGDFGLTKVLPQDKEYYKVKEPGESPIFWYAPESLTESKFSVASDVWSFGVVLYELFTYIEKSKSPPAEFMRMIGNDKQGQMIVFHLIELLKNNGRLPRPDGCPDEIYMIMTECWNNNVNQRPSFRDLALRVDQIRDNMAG
Data set [6] concerns the target kinases (KINOMEscan panel) (Homo sapiens, UniProt P06241). As to conditions: kinase FYN; Published KINOMEscan; ref original PKIS2 published data; cited from earlier work.
In data set [7] the target is kinases (KINOMEscan panel) (Homo sapiens, UniProt Q13555). As to conditions: CAMK2G; Published KINOMEscan; ref original PKIS2 published data; cited from earlier work.
Chain of kinases (KINOMEscan panel) (Homo sapiens, UniProt Q13555) (Q13555 whole entry): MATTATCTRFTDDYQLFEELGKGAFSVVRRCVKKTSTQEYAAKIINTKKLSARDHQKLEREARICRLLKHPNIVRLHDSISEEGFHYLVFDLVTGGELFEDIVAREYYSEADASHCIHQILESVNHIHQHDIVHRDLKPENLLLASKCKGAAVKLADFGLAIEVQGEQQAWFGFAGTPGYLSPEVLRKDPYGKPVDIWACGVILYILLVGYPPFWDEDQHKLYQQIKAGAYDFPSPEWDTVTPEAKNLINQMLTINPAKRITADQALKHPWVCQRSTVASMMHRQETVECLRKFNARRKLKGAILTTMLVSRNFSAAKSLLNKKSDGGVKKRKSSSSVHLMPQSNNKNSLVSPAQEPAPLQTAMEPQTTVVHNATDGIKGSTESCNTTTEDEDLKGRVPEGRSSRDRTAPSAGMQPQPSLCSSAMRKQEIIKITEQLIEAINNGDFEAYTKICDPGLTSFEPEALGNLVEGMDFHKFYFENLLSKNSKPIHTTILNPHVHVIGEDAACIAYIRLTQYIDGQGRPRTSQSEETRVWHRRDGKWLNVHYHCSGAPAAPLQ
Data set [8] addresses kinases (KINOMEscan panel) (Homo sapiens, UniProt Q08345). The following applies: DDR1; Published KINOMEscan; ref original PKIS2 published data; cited from earlier work.
The target of data set [9] is kinases (KINOMEscan panel) (Homo sapiens, UniProt Q16584). As to conditions: kinase MAP3K11; Published KINOMEscan; ref original PKIS2 published data; cited from earlier work.
Data set [10] addresses kinases (KINOMEscan panel) (Homo sapiens, UniProt P78368). The following applies: kinase CSNK1G2; Published KINOMEscan; ref original PKIS2 published data; cited from earlier work.
In data set [11] the target is kinases (KINOMEscan panel) (Homo sapiens, UniProt Q13705). The following applies: kinase ACVR2B; Published KINOMEscan; ref original PKIS2 published data; cited from earlier work.
Chain of kinases (KINOMEscan panel) (Homo sapiens, UniProt Q13705) (Q13705 19-512): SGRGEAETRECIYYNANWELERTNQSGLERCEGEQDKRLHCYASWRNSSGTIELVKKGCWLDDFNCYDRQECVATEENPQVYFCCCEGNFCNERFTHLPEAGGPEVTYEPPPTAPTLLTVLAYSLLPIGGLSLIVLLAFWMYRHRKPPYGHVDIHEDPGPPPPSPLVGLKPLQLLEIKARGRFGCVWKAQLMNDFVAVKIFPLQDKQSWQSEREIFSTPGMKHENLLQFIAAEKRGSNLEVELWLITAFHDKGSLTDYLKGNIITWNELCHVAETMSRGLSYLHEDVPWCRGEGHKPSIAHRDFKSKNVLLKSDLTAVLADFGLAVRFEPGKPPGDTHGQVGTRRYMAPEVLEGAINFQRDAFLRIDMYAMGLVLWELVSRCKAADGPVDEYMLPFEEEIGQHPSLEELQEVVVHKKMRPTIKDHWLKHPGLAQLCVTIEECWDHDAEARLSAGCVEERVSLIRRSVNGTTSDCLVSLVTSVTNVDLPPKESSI
The target in data set [12] is kinases (KINOMEscan panel) (Homo sapiens, UniProt P0C1S8). The following applies: WEE2; Published KINOMEscan; ref original PKIS2 published data; cited from earlier work.
Data set [13] addresses T1, kinases (KINOMEscan panel) (Homo sapiens, UniProt P51817).
T1 sequence (P51817 1-358): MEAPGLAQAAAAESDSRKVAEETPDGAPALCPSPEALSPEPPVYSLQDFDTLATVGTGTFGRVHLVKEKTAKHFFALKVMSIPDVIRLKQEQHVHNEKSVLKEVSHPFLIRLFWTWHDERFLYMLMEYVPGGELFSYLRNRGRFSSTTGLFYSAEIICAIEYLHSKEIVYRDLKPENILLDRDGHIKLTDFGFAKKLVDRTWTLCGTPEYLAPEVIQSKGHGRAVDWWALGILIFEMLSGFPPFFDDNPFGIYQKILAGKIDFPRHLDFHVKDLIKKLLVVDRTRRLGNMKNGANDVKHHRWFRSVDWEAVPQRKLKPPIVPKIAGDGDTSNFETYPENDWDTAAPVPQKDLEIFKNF
The following applies: kinase PRKX; Published KINOMEscan; ref original PKIS2 published data; cited from earlier work.

Data set [14] concerns the target kinases (KINOMEscan panel) (Homo sapiens, UniProt P16591). As to conditions: FER; Published KINOMEscan; ref original PKIS2 published data; cited from earlier work.
The target of data set [15] is T2, kinases (KINOMEscan panel) (Homo sapiens, UniProt Q9NWZ3).
T2 sequence (Q9NWZ3 1-460): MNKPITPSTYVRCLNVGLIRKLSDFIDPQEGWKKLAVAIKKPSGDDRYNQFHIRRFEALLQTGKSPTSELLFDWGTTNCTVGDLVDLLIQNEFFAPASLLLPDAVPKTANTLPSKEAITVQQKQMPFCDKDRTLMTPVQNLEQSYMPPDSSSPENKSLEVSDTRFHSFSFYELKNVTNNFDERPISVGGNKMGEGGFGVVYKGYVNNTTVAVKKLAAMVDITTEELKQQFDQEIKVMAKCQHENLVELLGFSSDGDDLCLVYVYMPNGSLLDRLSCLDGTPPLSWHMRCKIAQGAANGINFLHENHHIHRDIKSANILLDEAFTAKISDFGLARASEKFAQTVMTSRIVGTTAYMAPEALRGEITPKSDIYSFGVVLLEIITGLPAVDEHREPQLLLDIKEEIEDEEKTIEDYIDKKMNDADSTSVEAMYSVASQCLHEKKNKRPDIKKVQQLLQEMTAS
As to conditions: IRAK4; Published KINOMEscan; ref original PKIS2 published data; cited from earlier work.

Chain of kinases (KINOMEscan panel) (Homo sapiens, UniProt Q86UE8) (Q86UE8 whole entry): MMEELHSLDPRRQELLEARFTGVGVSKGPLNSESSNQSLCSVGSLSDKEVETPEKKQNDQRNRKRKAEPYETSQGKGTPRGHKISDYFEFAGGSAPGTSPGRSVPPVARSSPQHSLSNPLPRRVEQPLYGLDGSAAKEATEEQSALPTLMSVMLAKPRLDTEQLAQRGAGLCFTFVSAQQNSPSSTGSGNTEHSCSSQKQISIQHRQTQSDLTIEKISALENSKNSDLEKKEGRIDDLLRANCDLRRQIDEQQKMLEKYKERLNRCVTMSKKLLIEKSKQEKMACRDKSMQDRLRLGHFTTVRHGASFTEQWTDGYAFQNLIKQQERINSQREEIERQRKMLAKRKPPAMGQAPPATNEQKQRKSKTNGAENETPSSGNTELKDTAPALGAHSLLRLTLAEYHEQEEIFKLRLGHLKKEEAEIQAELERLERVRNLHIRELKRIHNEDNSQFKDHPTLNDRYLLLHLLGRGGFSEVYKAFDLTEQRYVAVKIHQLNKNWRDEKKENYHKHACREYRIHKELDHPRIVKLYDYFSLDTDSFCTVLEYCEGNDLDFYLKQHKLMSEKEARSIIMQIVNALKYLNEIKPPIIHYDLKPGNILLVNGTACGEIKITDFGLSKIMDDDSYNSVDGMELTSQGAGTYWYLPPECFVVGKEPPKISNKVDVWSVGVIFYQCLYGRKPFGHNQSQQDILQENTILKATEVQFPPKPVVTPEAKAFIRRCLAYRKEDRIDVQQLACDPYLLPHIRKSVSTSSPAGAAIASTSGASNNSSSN
Chain of kinases (KINOMEscan panel) (Homo sapiens, UniProt Q08345) (Q08345 19-913): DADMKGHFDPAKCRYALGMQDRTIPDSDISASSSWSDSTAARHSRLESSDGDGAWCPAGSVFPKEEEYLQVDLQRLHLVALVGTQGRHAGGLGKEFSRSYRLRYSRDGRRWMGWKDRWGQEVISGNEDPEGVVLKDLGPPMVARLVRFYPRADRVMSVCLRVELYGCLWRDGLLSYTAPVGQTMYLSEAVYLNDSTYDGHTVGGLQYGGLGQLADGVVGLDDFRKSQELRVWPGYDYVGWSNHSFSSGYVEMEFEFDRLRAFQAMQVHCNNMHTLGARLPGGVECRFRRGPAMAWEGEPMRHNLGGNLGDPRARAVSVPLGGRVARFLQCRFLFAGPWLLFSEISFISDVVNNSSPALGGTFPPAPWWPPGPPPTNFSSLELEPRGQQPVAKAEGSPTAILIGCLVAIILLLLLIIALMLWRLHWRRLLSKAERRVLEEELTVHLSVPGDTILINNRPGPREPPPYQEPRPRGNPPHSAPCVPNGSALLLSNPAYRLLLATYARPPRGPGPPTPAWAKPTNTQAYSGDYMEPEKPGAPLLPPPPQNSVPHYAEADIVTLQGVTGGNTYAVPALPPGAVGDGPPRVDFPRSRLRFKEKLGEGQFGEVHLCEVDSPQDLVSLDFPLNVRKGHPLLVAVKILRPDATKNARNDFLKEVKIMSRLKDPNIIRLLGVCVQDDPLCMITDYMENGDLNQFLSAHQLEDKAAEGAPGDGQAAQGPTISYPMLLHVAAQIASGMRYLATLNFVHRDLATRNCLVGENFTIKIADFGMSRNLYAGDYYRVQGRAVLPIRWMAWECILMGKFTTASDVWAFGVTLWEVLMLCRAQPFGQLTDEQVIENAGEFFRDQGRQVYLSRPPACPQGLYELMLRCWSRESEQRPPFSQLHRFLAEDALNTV
Chain of kinases (KINOMEscan panel) (Homo sapiens, UniProt P06241) (P06241 whole entry): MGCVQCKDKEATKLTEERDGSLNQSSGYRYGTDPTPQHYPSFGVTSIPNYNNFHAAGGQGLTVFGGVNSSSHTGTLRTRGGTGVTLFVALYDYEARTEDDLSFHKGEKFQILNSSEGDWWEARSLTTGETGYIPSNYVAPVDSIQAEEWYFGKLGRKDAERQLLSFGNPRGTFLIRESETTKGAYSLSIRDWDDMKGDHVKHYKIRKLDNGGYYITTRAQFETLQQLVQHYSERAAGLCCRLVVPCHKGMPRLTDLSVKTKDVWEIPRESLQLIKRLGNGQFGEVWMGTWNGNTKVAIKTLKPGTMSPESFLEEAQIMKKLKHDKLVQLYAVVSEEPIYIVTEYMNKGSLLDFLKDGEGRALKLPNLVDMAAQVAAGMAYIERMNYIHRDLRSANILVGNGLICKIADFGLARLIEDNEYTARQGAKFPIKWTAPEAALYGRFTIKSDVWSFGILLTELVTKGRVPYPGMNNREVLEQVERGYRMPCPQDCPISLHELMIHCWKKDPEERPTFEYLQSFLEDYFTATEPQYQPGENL

With `Cc1cccc(-c2nc(Nc3ccncc3)c3ccccc3n2)n1` [NK215], the “KINOMEscan PAK6” value in [1] is 3. Also, the “KINOMEscan TLK2” value in data set [2] was 0. The “KINOMEscan CDKL3” value in data set [3] was 0. Also, the “KINOMEscan PIP5K1A” value in data set [4] is 10. Besides, the “KINOMEscan JAK2(JH1domain-catalytic)” value in data set [5] is 0. Also, in data set [6], the “KINOMEscan FYN” value was 13. For the same compound, in data set [7], the “KINOMEscan CAMK2G” value was 0. For the same compound, the “KINOMEscan DDR1” value in data set [8] is 30. For the same compound, the “KINOMEscan MAP3K11” value in data set [9] is given as 6. Also, the “KINOMEscan CSNK1G2” value in [10] is 20. The “KINOMEscan ACVR2B” value in data set [11] is recorded as 36. The “KINOMEscan WEE2” value in data set [12] is listed as 8. For the same compound, the “KINOMEscan PRKX” value in data set [13] is recorded as 0. Moreover, in [14], the “KINOMEscan FER” value is 0. Further, the “KINOMEscan IRAK4” value in data set [15] was 0.
